Reference: patent US20240123012A1 (priority 2021, published 2024)

Target: human recombinant DHODH (rhDHODH) (Homo sapiens, UniProt Q02127)
Assay: Inhibition of the activity of rh DHODH on its colorimetric substrate (OD at 600 nm)
Format: biochemical
Protocol: This mother tincture constitutes the sample to be tested. The measurement of the inhibition of the action of DHODH on its substrate is carried out in a conventional multi-well plate with a transparent wall. The wells contain the samples to be tested, the DHODH and its substrate.
To evaluate the inhibition of the DHODH by the sample, the parameter of the optical density called “OD” is used. Indeed, in each well, the “OD” is measured at a wavelength of 600 nm, at several time intervals, for a duration of 5 min.
More specifically, each well comprises the diluted or non-diluted sample, the enzyme of the DHODH and its colorimetric substrate diluted in a test buffer. Said colorimetric substrate comprises DHO which can be converted into ORO by action of the DHODH.
Over time, the consumption of the colorimetric substrate DHO by the enzyme DHODH results in a reduction in the OD. This decrease indicates the conversion of the colored DHO into uncolored ORO by the activity of the DHODH. In other words, the DHO is consumed, […] to ORO by the activity of the DHODH, which causes a modification of the OD measured.
In the event of inhibition of the activity of the DHODH by the sample, the OD remains stable over time. Indeed, in the case of inhibition, the colorimetric DHO substrate will not be transformed by the DHODH into ORO, the OD therefore will remain that of the initial DHO.
To carry out the experiments, the following were used: • a solution of class 1 enzyme called “rhDHODH” for “human recombinant DHODH”, • a test buffer consisting of 50 mM Tris, 150 mM KCl and 0.1% Triton® X-100, at pH 8, • a substrate mixture of DHODH containing: 2 mM of L-dihydroorotic called “DHO”, 0.2 mM of decylubiquinone called “Q” and 0.12 mM of 2,6-Dichloroindophenol sodium salt hydrate called “DP IP” in the test buffer, • a mother tincture sample of a leaf extract of a Neurolaena lobata plant, diluted or not, in a dilution buffer consisting of dimethyl sulfoxide called “DMSO”.
To start the protocol, each dilution of the sample H1 or H2 was placed in the presence of the rh DHODH enzyme and the mixture of substrate within a well. In order to obtain an average of OD measured for a sample concentration H1 or H2, triplicates were carried out for each of the dilution concentrations of H1 and H2.
The amount of enzyme added in each well is the same. In the protocol, the enzyme is added to the well so as to have a concentration of 0.06 μg of rh DHODH enzyme/mL of total solution in the well.
% of activity=(ΔH1×100)/Δ of the negative control.
The % of inhibition is calculated by the following formula: 100—the value of the % of activity.

Sequence of human recombinant DHODH (rhDHODH) (Q02127 whole entry): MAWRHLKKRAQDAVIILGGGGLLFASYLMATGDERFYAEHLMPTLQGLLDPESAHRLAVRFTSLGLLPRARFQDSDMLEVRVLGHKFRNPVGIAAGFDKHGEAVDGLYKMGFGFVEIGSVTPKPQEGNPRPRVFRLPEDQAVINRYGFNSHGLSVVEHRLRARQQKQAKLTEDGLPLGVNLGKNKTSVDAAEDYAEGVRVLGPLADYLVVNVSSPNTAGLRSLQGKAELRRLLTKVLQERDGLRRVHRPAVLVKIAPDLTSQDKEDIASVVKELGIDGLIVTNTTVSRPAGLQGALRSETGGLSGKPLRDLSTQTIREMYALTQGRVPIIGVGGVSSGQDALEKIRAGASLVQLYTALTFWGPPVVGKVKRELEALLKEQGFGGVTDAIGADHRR

SMILES: Cc1c(-c2ccc(-c3ccccc3F)cc2)nc2ccc(F)cc2c1C(=O)O [brequinar]
- activity at 0.001 µg/mL: 6.25%
- activity at 0.01 µg/mL: 7.21%
- activity at 0.1 µg/mL: 0%
- activity at 1 µg/mL: 0%
- Δ (OD at 0 s minus OD at 275 s) (0.001 μg/mL): 0.013
- inhibition at 0.001 µg/mL (0.001 μg/mL, 0-275 s): 93.8%
- OD at 600 nm (0.001 μg/mL, 0 s): 0.339
- OD at 600 nm (0.001 μg/mL, 55 s): 0.340
- OD at 600 nm (0.001 μg/mL, 110 s): 0.333
- OD at 600 nm (0.001 μg/mL, 165 s): 0.331
- OD at 600 nm (0.001 μg/mL, 220 s): 0.328
- OD at 600 nm (0.001 μg/mL, 275 s): 0.326
- Δ (OD at 0 s minus OD at 275 s) (0.01 μg/mL): 0.015
- inhibition at 0.01 µg/mL (0.01 μg/mL, 0-275 s): 92.8%
- OD at 600 nm (0.01 μg/mL, 0 s): 0.344
- OD at 600 nm (0.01 μg/mL, 55 s): 0.345
- OD at 600 nm (0.01 μg/mL, 110 s): 0.339
- OD at 600 nm (0.01 μg/mL, 165 s): 0.336
- OD at 600 nm (0.01 μg/mL, 220 s): 0.348
- OD at 600 nm (0.01 μg/mL, 275 s): 0.329
- Δ (OD at 0 s minus OD at 275 s) (0.1 μg/mL): 0.000
- inhibition at 0.1 µg/mL (0.1 μg/mL, 0-275 s): 100%
- OD at 600 nm (0.1 μg/mL, 0 s): 0.349
- OD at 600 nm (0.1 μg/mL, 55 s): 0.348
- OD at 600 nm (0.1 μg/mL, 110 s): 0.353
- OD at 600 nm (0.1 μg/mL, 165 s): 0.345
- OD at 600 nm (0.1 μg/mL, 220 s): 0.350
- OD at 600 nm (0.1 μg/mL, 275 s): 0.349
- Δ (OD at 0 s minus OD at 275 s) (1 μg/mL): 0.001
- inhibition at 1 µg/mL (1 μg/mL, 0-275 s): 100%
- OD at 600 nm (1 μg/mL, 0 s): 0.354
- OD at 600 nm (1 μg/mL, 55 s): 0.354
- OD at 600 nm (1 μg/mL, 110 s): 0.352
- OD at 600 nm (1 μg/mL, 165 s): 0.361
- OD at 600 nm (1 μg/mL, 220 s): 0.357
- OD at 600 nm (1 μg/mL, 275 s): 0.353
